The source of these data is patent US7863329B2 (Eli Lilly and Company, priority 2005, dated 2011).

The target of this experiment is T1, cloned human glucagon receptor (Homo sapiens, UniProt P47871).
T1 construct: expressed in transfected cells; host or cells: 293 HEK cells, hygromycin-selected; crude plasma membranes
Description: Glucagon Receptor (hGlucR) Binding Assay (SPA, I-125 glucagon competition). The text has this:
The second supernate is combined with the first supernate.
The specific activity is 2200 Ci/mmol.

Molecules are shown by their SMILES.

T1 sequence (P47871 26-477): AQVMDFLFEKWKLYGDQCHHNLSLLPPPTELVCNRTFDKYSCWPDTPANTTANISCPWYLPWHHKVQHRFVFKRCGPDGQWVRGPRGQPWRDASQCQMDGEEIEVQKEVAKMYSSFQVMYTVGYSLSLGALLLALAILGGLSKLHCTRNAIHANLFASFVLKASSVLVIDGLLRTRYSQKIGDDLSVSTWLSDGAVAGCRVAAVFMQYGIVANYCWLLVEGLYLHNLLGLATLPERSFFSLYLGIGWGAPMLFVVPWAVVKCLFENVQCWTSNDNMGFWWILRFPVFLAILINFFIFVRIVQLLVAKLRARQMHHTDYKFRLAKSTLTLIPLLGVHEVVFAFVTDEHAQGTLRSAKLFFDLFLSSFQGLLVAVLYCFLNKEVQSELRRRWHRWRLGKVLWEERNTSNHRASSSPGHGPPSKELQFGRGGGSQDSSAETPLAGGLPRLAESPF

In the case of `CC(C)CC(Cc1ccc(-c2ccc(C(C)(C)C)cc2)cc1)c1ccc(C(=O)NCCC(=O)O)cc1` (centres unmarked), the Ki came out at 266 nM. That is a sub-micromolar value.

With `CCCCCCC(Cc1ccc(-c2ccc(C(F)(F)F)cc2)cc1)c1ccc(C(=O)NCCC(=O)O)cc1` (centres unmarked), the Ki was 232 nM.
